From ChEMBL document CHEMBL5385878, “Synthesis and structure-activity optimization of 7-azaindoles containing aza-β-amino acids targeting the influenza PB2 subunit” (Eur J Med Chem, 2023)
Calls of active or inactive are those of the source. The calls are words filed in the database; no cut-off is given here.

Key:
[1] = molecular target: Polymerase basic protein 2 (Influenza A virus (strain A/Puerto Rico/8/1934 H1N1)) (UniProt P03428); experiment: Inhibition of influenza A virus polymerase PB2 expressed in HEK293T cells cotransfected with PGK-renilla-luciferase at 10 uM pretreated with cells for 2 hrs followed by enzyme addition and measured after 24 hrs by dual-Glo luciferase assay relative to control; type: cell-based; details: time 26.0 hrs
[2] = Selectivity index, ratio of CC50 for human A549 cells to EC50 for antiviral activity against Influenza A virus A/WSN/33(H1N1) infected in A549 cells; type: toxicity, cell-based; details: read-out: Ratio CC50/EC50
[3] = molecular target: Polymerase basic protein 2 (Influenza A virus (strain A/Puerto Rico/8/1934 H1N1)) (UniProt P03428); experiment: Inhibition of influenza A virus polymerase PB2 expressed in HEK293T cells cotransfected with PGK-renilla-luciferase assessed as remaining activity at 10 uM pretreated with cells for 2 hrs followed by enzyme addition and measured after 24 hrs by dual-Glo luciferase assay relative to control; type: cell-based; details: time 26.0 hrs
Influenza A virus [4] = experiment: Antiviral activity against Influenza A virus A/WSN/33(H1N1) infected in A549 cells assessed as reduction in cell cytopathic effect incubated with cells for 2 hrs prior to viral infection followed by MDCK cells addition at 24 hrs pi and measured after 72 hrs by Reed-Muench method; type: functional, organism-based
[5] = molecular target: T1, Polymerase basic protein 2 (Influenza A virus (strain A/Puerto Rico/8/1934 H1N1), UniProt P03428); experiment: Inhibition of influenza A virus polymerase PB2 expressed in HEK293T cells cotransfected with PGK-renilla-luciferase pretreated with cells for 2 hrs followed by enzyme addition and measured after 24 hrs by dual-Glo luciferase assay; type: cell-based
[6] = Cytotoxicity against human A549 cells assessed as reduction in cell viability incubated for 96 hrs by CCK-8 method; type: toxicity, cell-based
[7] = molecular target: T1, Polymerase basic protein 2; experiment: Binding affinity to recombinant Influenza A virus polymerase PB2 cap-binding domain (318 to 413 residues) assessed as dissociation constant by ITC method
Influenza A virus [8] = experiment: Antiviral activity against Influenza A virus A/WSN/33(H1N1) infected in BALB/c mouse assessed as log10 reduction in viral titer at 12 mg/kg, po BID administered starting from 2 hrs before infection and measured on day 3; type: functional; details: time 3 day
Influenza A virus [9] = experiment: Antiviral activity against Influenza A virus A/WSN/33(H1N1) infected in BALB/c mouse assessed as log reduction in lung viral titer at 12 mg/kg, po BID administered starting from 2 hrs before infection and measured on day 3 (reference value: 6.916 +/- 0.4736); type: functional; details: time 3 day
[10] = Toxicity in BALB/c mouse infected with Influenza A virus A/WSN/33(H1N1) assessed as body weight loss at 12 mg/kg, po BID administered starting from 2 hrs before infection and measured on day 3; type: organism-based; details: in vivo, 72 h, time 3 day
[11] = Toxicity in BALB/c mouse infected with Influenza A virus A/WSN/33(H1N1) assessed as body weight loss at 12.5 to 25 mg/kg, po BID administered starting from 2 days post-infection to 9 days and measured for 15 days; type: organism-based; details: in vivo, 360 h, dose 12.5-25 mg/kg, time 15 day
[12] = Toxicity in BALB/c mouse assessed as change in Cr level at 40 mg/kg, po administered for 3 days; type: organism-based; details: in vivo, 72 h, time 3 day
[13] = Toxicity in BALB/c mouse assessed as change in AST level at 40 mg/kg, po administered for 3 days; type: organism-based; details: in vivo, 72 h, time 3 day
[14] = Toxicity in BALB/c mouse assessed as change in body weight at 40 mg/kg, po administered for 3 days; type: organism-based; details: in vivo, 72 h, time 3 day
[15] = Toxicity in BALB/c mouse assessed as animal death at 40 mg/kg, po administered once daily for 3 days; type: organism-based; details: in vivo, 72 h, time 3 day
[16] = Toxicity in BALB/c mouse assessed as poisoning symptom at 40 mg/kg, po administered once daily for 3 days; type: organism-based; details: in vivo, 72 h, time 3 day
[17] = molecular target: Voltage-gated inwardly rectifying potassium channel KCNH2 (Homo sapiens, UniProt Q12809); experiment: Inhibition of hERG by manual patch clamp method; type: toxicity
[18] = Toxicity in BALB/c mouse assessed as change in ALT level at 40 mg/kg, po administered for 3 days; type: organism-based; details: in vivo, 72 h, time 3 day
Influenza A virus [19] = experiment: Antiviral activity against wild type Influenza A/WSN/33 at 0.3 uM; type: functional, organism-based
[20] = molecular target: Polymerase basic protein 2 (Influenza A virus (strain A/Puerto Rico/8/1934 H1N1)) (UniProt P03428); experiment: Potency index, ratio of m7GTP Kd to test compound Kd for recombinant Influenza A virus polymerase PB2 cap-binding domain (318 to 413 residues)
Influenza A virus [21] = experiment: Antiviral activity against Influenza A virus A/WSN/33(H1N1) infected in BALB/c mouse assessed as recovery of AST level at 12 mg/kg, po BID administered starting from 2 hrs before infection and measured on day 3; type: functional, organism-based; details: time 3.0 day
Influenza A virus [22] = experiment: Antiviral activity against Influenza A virus A/WSN/33(H1N1) infected in BALB/c mouse assessed as increase in survival ratio at 12.5 to 25 mg/kg, po BID administered starting from 2 days post-infection to 9 days and measured for 15 days; type: functional; details: dose 12.5-25 mg/kg, time 15 day
Influenza A virus [23] = experiment: Antiviral activity against Influenza A virus A/WSN/33(H1N1) infected in BALB/c mouse assessed as recovery of ALT level at 12 mg/kg, po BID administered starting from 2 hrs before infection and measured on day 3; type: functional, organism-based; details: time 3.0 day
[24] = Stability in mouse plasma assessed as half life; type: ADME, cell-free

Chain of Polymerase basic protein 2 (Influenza A virus (strain A/Puerto Rico/8/1934 H1N1)) (P03428 whole entry, looked up, the tested form may be a part): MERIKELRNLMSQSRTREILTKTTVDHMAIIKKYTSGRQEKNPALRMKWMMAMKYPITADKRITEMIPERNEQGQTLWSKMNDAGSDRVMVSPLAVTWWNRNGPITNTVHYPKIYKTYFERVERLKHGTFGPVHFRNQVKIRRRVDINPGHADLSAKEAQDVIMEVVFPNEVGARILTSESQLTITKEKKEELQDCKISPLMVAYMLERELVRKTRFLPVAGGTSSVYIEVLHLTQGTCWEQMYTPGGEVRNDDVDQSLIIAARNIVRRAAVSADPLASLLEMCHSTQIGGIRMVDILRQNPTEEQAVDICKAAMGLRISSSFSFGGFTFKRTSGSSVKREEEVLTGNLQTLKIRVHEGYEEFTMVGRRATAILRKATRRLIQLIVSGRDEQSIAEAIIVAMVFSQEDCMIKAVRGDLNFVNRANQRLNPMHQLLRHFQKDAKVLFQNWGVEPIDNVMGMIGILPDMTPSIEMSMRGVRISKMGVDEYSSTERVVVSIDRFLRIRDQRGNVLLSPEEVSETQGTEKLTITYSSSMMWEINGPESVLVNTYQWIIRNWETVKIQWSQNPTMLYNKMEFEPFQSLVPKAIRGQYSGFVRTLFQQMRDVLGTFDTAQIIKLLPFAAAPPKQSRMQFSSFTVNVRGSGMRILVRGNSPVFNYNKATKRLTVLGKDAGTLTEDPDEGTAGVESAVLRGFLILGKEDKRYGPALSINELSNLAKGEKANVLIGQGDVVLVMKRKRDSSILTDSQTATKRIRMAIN
T1 sequence (P03428 whole entry): as the sequence (P03428 whole entry, looked up, the tested form may be a part) above
Chain of Voltage-gated inwardly rectifying potassium channel KCNH2 (Q12809 whole entry): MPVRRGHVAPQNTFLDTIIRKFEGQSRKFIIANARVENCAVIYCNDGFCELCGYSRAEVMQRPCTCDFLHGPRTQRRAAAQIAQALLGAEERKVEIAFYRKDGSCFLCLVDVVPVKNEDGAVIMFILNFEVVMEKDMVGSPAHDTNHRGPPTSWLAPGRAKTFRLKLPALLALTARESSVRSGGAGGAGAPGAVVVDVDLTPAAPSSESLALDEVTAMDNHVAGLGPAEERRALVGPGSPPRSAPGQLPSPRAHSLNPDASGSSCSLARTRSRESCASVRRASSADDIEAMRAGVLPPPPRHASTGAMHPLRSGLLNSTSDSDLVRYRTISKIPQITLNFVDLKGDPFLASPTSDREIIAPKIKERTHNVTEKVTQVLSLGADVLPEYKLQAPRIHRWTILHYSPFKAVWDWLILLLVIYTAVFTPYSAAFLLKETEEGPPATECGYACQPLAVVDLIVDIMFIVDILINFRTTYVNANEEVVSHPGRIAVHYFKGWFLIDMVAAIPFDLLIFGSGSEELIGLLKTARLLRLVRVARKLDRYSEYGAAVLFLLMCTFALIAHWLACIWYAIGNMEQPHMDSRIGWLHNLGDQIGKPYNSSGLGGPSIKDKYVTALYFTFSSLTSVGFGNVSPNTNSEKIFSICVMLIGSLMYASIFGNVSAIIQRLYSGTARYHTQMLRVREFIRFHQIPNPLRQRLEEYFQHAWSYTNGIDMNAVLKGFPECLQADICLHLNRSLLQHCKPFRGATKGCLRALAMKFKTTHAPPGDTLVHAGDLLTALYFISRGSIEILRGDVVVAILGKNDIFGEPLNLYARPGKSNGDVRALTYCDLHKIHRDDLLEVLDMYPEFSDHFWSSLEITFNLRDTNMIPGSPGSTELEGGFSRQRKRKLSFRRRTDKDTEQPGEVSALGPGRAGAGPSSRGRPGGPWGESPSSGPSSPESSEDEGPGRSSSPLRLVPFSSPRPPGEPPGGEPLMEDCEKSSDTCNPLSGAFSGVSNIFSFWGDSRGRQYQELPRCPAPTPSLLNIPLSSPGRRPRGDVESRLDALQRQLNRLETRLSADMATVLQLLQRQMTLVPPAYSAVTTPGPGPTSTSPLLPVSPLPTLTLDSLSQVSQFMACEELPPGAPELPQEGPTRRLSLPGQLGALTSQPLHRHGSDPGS

| SMILES | inhibition [1] [%] | Activity [3] [%] | EC50 (Influenza A virus [4]) [nM] | IC50 [5] [nM] | further results |
| --- | --- | --- | --- | --- | --- |
| CC(C)(C)N(CC(=O)O)Nc1nc(-c2c[nH]c3ncccc23)ncc1F | 99.8 | 0.2 | 170 | 290 | selectivity ratio [2]: > 597; CC50 at 96 h [6]: > 100000 nM; Kd [7]: 468 nM |
| CC(C)(C)CN(CC(=O)O)Nc1nc(-c2c[nH]c3ncccc23)ncc1F | 35 | 65 |  |  |  |
| O=C(O)[C@@H]1CC2(CC2)CN1Nc1nc(-c2c[nH]c3ncc(F)cc23)ncc1F | 79 | 21 | 1450 | 3070 | selectivity ratio [2]: 60; CC50 at 96 h [6]: 87000 nM; Kd [7]: 145 nM |
| O=C(O)[C@H]1C2CCC(CC2)[C@@H]1Nc1nc(-c2c[nH]c3ncc(F)cc23)ncc1F [PIMODIVIR] | 99.9 | 0.1 | 1 | 4 | log(activity) (Influenza A virus [8]): 6; log(activity) (Influenza A virus [9]): 0.964 |
| O=C(O)[C@@H]1CCCCN1Nc1nc(-c2c[nH]c3ncc(F)cc23)ncc1F | 88 | 12 | 1150 | 1450 | selectivity ratio [2]: > 87; CC50 at 96 h [6]: > 100000 nM |
| O=C(O)[C@@H]1CCCN1Nc1nc(-c2c[nH]c3ncc(F)cc23)ncc1F | 38 | 62 |  |  |  |
| O=C(O)[C@@H]1CCCCN1Nc1nc(-c2c[nH]c3ncccc23)ncc1F | 33 | 67 |  |  |  |
| O=C(O)[C@@H]1C[C@@H]2CCCC[C@@H]2N1Nc1nc(-c2c[nH]c3ncc(F)cc23)ncc1F | 99.9 | 0.1 | 50 | 360 | selectivity ratio [2]: 1024; CC50 at 96 h [6]: 54100 nM; Kd [7]: 202 nM |
| O=C(O)CN(Cc1ccccc1)Nc1nc(-c2c[nH]c3ncc(F)cc23)ncc1F | 0 | > 100 |  |  |  |
| O=C(O)CN(Nc1nc(-c2c[nH]c3ncccc23)ncc1F)C1CCCCC1 | 65 | 34 |  |  |  |
| CC(C1CC1)N(CC(=O)O)Nc1nc(-c2c[nH]c3ncc(F)cc23)ncc1F (stereo not given) | 59 | 41 |  |  |  |
| CC(C)(C)N(CC(=O)O)Nc1nc(-c2c[nH]c3ncc(F)cc23)ncc1F | 99.7 | 0.3 | 30 | 60 | Activity [10]: Non-Toxic; Activity [11]: Non-Toxic; Activity [12]: Non-Toxic; Activity [13]: Non-Toxic; Activity [14]: Non-Toxic; selectivity ratio [2]: > 2920; Activity [15]: Non-Toxic; Activity [16]: Non-Toxic; IC50 [17]: > 10000 nM; Activity [18]: Non-Toxic; log(activity) (Influenza A virus [8]): 2; log(activity) (Influenza A virus [9]): 4.988; Activity (Influenza A virus [19]): Active; Ratio [20]: 3850; Activity (Influenza A virus [21]): Active; CC50 at 96 h [6]: > 100000 nM; Activity (Influenza A virus [22]): 85.7%; Kd [7]: 46.2 nM; Activity (Influenza A virus [23]): Active; half-life [24]: 12 h |
| O=C(O)[C@@H]1Cc2ccccc2CN1Nc1nc(-c2c[nH]c3ncc(F)cc23)ncc1F | 38 | 62 |  |  |  |
| O=C(O)CN(Nc1nc(-c2c[nH]c3ncc(F)cc23)ncc1F)C1CCCC1 | 54 | 46 |  |  |  |
| O=C(O)[C@@H]1Cc2ccccc2CN1Nc1nc(-c2c[nH]c3ncccc23)ncc1F | 27 | 73 |  |  |  |
| CCOC(=O)C1=C[C@@H](OC(CC)CC)[C@H](NC(C)=O)[C@@H](N)C1 [OSELTAMIVIR] |  |  | 40 |  |  |
| O=C(O)CN(Nc1nc(-c2c[nH]c3ncccc23)ncc1F)C1CCCC1 | 42 | 58 |  |  |  |
| O=C(O)CN(Nc1nc(-c2c[nH]c3ncccc23)ncc1F)C1CCC1 | 0 | > 100 |  |  |  |
